Measured values: publication PMC3050433, “The effects of maribavir on the autophosphorylation of ganciclovir resistant mutants of the cytomegalovirus UL97 protein” (Herpesviridae, 2010)
Changes are numbered by the printed parent chain.

Key:
Assay type in all cases: biochemical
[1] = biological target: T1, UL97 A594T (Human cytomegalovirus, UniProt Q68101, A594T); assay: UL97 autophosphorylation protein kinase assay, A594T
T1 construct: PCR reaction to generate the full length UL97; honey bee melittin secretion signal (N); made in house; host or cells: Sf21 insect cells, recombinant baculovirus (pMelBac C)
T1 sequence (Q68101 1-707 A594T): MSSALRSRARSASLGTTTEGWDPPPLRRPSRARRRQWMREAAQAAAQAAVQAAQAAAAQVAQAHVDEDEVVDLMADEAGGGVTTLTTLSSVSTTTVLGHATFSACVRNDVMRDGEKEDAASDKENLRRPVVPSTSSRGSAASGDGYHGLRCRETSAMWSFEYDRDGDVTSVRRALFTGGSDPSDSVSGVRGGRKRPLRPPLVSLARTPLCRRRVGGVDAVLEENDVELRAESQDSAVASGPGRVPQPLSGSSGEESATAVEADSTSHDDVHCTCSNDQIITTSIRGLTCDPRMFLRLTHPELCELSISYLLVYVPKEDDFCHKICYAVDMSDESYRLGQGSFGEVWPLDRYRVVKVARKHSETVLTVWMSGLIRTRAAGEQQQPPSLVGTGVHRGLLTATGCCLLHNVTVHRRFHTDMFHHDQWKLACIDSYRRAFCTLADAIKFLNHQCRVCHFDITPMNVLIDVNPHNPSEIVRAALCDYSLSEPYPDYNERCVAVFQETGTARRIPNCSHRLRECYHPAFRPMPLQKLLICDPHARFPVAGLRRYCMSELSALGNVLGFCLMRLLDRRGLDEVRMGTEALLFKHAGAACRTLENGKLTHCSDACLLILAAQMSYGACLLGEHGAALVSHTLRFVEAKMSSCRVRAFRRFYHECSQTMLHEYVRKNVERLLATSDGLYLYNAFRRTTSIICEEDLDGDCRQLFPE
Protocol: (§1) Analysis of the autophosphorylation of wild type and mutant UL97 protein species was performed by a standard protein kinase assay as previously described (46). Briefly, purified protein was added to 2× protein kinase buffer (100 mM Tris HCl, pH9.0, 20 mM MgCl2, 10 μM ATP, 4 mM DTT, 2 M NaCl) and 370 KBq [γ^32P] ATP (Amersham), made up to 20 μl with SDW and incubated at 37°C. The reactions were terminated by the addition of 2× SDS sample buffer followed by boiling for 3 minutes. The amount of radiolabelled phosphate incorporated by autophosphorylation was analysed by SDS-PAGE and measured using the Biorad Mulitanalyst. The protein kinase assays were initially performed for 2 to 60 minutes to determine the maximum rate of phosphate incorporation, all assays were then performed at the maximum rate which equated to 5 minutes.
(§2) Enzyme kinetic analysis was performed on the purified wild type and mutant UL97 protein species as above using increasing concentrations of ATP (2 μM to 20 μM). The amount of incorporated radiolabelled phosphate was plotted against the concentration of ATP in a Lineweaver Burke plot to determine the Km for ATP for each UL97 species. […]

[2] = biological target: T2, UL97 H520Q (Human cytomegalovirus, UniProt Q68101, H520Q); assay: UL97 autophosphorylation protein kinase assay, H520Q
T2 construct: PCR reaction to generate the full length UL97; honey bee melittin secretion signal (N); made in house; host or cells: Sf21 insect cells, recombinant baculovirus (pMelBac C)
T2 sequence (Q68101 1-707 H520Q): T1 sequence (Q68101 1-707 A594T) with H520Q, T594A
Protocol: as §1, §2

[3] = biological target: T3, UL97 M460I (Human cytomegalovirus, UniProt Q68101, M460I); assay: UL97 autophosphorylation protein kinase assay, M460I
T3 construct: PCR reaction to generate the full length UL97; honey bee melittin secretion signal (N); made in house; host or cells: Sf21 insect cells, recombinant baculovirus (pMelBac C)
T3 sequence (Q68101 1-707 M460I): T1 sequence (Q68101 1-707 A594T) with M460I, T594A
Protocol: as §1, §2

Nc1ncnc2c1ncn2[C@@H]1O[C@H](COP(=O)(O)OP(=O)(O)OP(=O)(O)O)[C@@H](O)[C@H]1O [ATP] showed a Km ([1]; A594T, read-out: Km for ATP) of 40 ± 4.2 µM, a Km ([2]; H520Q, read-out: Km for ATP) of 25 ± 2.4 µM and a Km ([3]; M460I, read-out: Km for ATP) of 28 ± 2 µM.

With CC(C)Nc1nc2cc(Cl)c(Cl)cc2n1[C@H]1O[C@@H](CO)[C@H](O)[C@@H]1O [maribavir, 5,6-dichloro-2-(isopropylamino)-1-beta-L-ribofuranosyl-1H-benzimidazole] the IC50 ([1]; A594T mutant) was 31 nM, the IC50 ([2]; H520Q mutant) was 33 nM and the IC50 ([3]; M460I mutant) was 4.8 nM.
